Experimental data: patent US20110201628A1, “HETEROCYCLIC JAK KINASE INHIBITORS” (priority 2008, published 2011)

Molecular target: T1, N-terminal GST-tagged, recombinant, human JAK2 (amino acids 831-1132) (Homo sapiens, UniProt O60674)
T1 construct: human JAK2 (amino acids 831-1132, PLAZA database pAZB0359); GST (N); host or cells: insect cells
Test: JAK2 mobility shift assay on Caliper LC3000 (Method 2)
Type: biochemical
Conditions: 0.3 nM JAK2 enzyme, 5 mM ATP, 1.5 μM SRCtide, 90 minutes room temperature
Procedure: Janus kinase 2 (JAK2) activity was also determined by measuring the kinase's ability to phosphorylate a tyrosine residue within a peptide substrate using a mobility shift assay on a Caliper LC3000 reader (Caliper, Hopkinton, Mass.), which measures fluorescence of the phosphorylated and unphosphorylated substrate and calculates a ratiometric value to determine percent turnover.
To measure JAK2 kinase activity, an in-house purified enzyme was used. […] After incubation of the kinase with a FAM labeled SRCtide substrate, adenosine triphosphate (ATP), and MgCl2 for 90 minutes at room temperature, the kinase reaction was stopped by the addition of 36 mM ethylenediaminetetraacetic acid (EDTA). The reaction was performed in 384 well microtitre plates and the reaction products were detected using the Caliper LC3000 Reader.

T1 sequence (O60674 831-1132): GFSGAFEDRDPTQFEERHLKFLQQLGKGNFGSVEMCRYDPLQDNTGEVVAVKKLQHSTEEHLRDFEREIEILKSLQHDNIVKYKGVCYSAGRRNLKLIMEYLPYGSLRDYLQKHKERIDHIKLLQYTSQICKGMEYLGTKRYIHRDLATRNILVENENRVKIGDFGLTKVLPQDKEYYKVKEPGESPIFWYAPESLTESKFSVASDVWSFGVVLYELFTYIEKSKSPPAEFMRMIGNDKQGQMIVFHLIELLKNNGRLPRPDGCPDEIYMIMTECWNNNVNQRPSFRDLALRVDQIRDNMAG

In order of rising IC50:
1. CC(Nc1nc(Nc2cn(C)cn2)c2ccn(CCF)c2n1)c1ncc(F)cn1 (single isomer, unassigned) [Example 22(b), 7-(2-Fluoroethyl)-N^2-[1-(5-fluoropyrimidin-2-yl)ethyl]-N^4-(1-methyl-1H-imidazol-4-yl)-7H-pyrrolo[2,3-d]pyrimidine-2,4-diamine]  0.007 µM
2. CC(Nc1nc(Nc2cn(C)cn2)c2cc[nH]c2n1)c1ncc(F)cc1F (single isomer, unassigned) [Example 25(b), N^2-[1-(3,5-Difluoropyridin-2-yl)ethyl]-N^4-(1-methyl-1H-imidazol-4-yl)-7H-pyrrolo[2,3-d]pyrimidine-2,4-diamine]  0.01 µM
3. C[C@H](Nc1nc(Nc2cn(C)cn2)c2cc(C(F)(F)F)[nH]c2n1)c1ncc(F)cn1 [Example 19, N^2-[(1S)-1-(5-Fluoropyrimidin-2-yl)ethyl]-N^4-(1-methyl-1H-imidazol-4-yl)-6-(trifluoromethyl)-7H-pyrrolo[2,3-d]pyrimidine-2,4-diamine]  0.013 µM
4. CC(Nc1nc(Nc2cn(C)cn2)c2ccc(C(F)(F)F)nc2n1)c1ncc(F)cc1F (racemic) [Example 33, N^2-[1-(3,5-Difluoropyridin-2-yl)ethyl]-N^4-(1-methyl-1H-imidazol-4-yl)-7-(trifluoromethyl)pyrido[2,3-d]pyrimidine-2,4-diamine]  0.026 µM
5. CC(Nc1nc(Nc2cn(C)cn2)c2ccn(C3CC3)c2n1)c1ncc(F)cn1 (single isomer, unassigned) [Example 24(b), 7-Cyclopropyl-N^2-[1-(5-fluoropyrimidin-2-yl)ethyl]-N^4-(1-methyl-1H-imidazol-4-yl)-7H-pyrrolo[2,3-d]pyrimidine-2,4-diamine]  0.027 µM
6. C[C@H](Nc1nc(Nc2cn(C)cn2)c2ccc(C(F)(F)F)nc2n1)c1ncc(F)cn1 [Example 32, N^2-[(1S)-1-(5-Fluoropyrimidin-2-yl)ethyl]-N^4-(1-methyl-1H-imidazol-4-yl)-7-(trifluoromethyl)pyrido[2,3-d]pyrimidine-2,4-diamine]  0.035 µM
7. CCn1ncc2c(Nc3cn(C)cn3)nc(NC(C)c3ncc(F)cn3)nc21 (single isomer, unassigned) [Example 9(b), 1-Ethyl-N^6-[1-(5-fluoropyrimidin-2-yl)ethyl]-N^4-(1-methyl-1H-imidazol-4-yl)-1H-pyrazolo[3,4-d]pyrimidine-4,6-diamine]  0.04 µM
8. COc1cnc(C(C)Nc2nc(Nc3cn(C)cn3)c3cc[nH]c3n2)nc1 (racemic) [Example 27, N^2-[1-(5-Methoxypyrimidin-2-yl)ethyl]-N^4-(1-methyl-1H-imidazol-4-yl)-7H-pyrrolo[2,3-d]pyrimidine-2,4-diamine]  0.27 µM
9. COc1cnc(C(C)Nc2nc(Nc3cn(C)cn3)c3cc[nH]c3n2)nc1 (stereo not drawn) [Example 27(b), N^2-[1-(5-Methoxypyrimidin-2-yl)ethyl]-N^4-(1-methyl-1H-imidazol-4-yl)-7H-pyrrole[2,3-d]pyrimidine-2,4-diamine]  0.52 µM
10. CC(Nc1nc(Nc2cn(C)cn2)c2cc(F)cnc2n1)c1ncc(F)cc1F (single isomer, unassigned) [Example 31(b), N^2-[1-(3,5-Difluoropyridin-2-yl)ethyl]-6-fluoro-N^4-(1-methyl-1H-imidazol-4-yl)pyrido[2,3-d]pyrimidine-2,4-diamine]  15 µM

Molecular target: T2, C-terminal His6-tagged human JAK2 kinase (Homo sapiens, UniProt O60674)
T2 construct: His6 (C); purchased Upstate Biotechnology, MA 14-640; host or cells: baculovirus in Sf21 cells
T2 sequence (O60674 808-1132 limits assumed): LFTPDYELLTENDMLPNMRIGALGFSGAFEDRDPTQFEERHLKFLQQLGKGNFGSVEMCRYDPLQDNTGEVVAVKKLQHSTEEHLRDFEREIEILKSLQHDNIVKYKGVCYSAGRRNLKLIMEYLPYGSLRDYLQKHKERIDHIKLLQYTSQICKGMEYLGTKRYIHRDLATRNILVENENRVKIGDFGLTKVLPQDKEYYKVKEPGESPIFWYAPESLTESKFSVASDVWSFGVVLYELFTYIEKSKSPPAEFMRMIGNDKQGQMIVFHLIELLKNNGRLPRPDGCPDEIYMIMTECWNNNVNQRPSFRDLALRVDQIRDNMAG
Test: JAK2 Amplified Luminescent Proximity Homogeneous Assay (ALPHA) (Method 3)
Type: biochemical
Conditions: biotinylated Tyk substrate, 20 minutes preincubation, 90 minutes at 25° C.
Procedure: Activity of purified C-terminal His6-tagged human JAK2 kinase was determined in-vitro using an Amplified Luminescent Proximity Homogeneous Assay (ALPHA) (Perkin Elmer, MA), which measures phosphorylation of a biotinylated Tyk ([…]) substrate (Cell Signaling Technology, MA, Cat #2200B). Commercially available JAK2 (amino acids 808-end, Genbank Accession number NM 004972, Upstate Biotechnology, MA, Catalog 14-640) was expressed by baculovirus in Sf21 cells and affinity purified by Ni^+2/NTA agarose.
The phosphorylation of Tyk substrate in the presence and absence of the compound of interest was determined. Briefly, 5 μl of Enzyme/Substrate/adenosine triphosphate (ATP) mix consisting of 1.44 nM JAK2, 192 nM Tyk, and 12 mM ATP in 1.2× buffer was preincubated with 2 μl of compound for 20 minutes at 25° C. […] Phosphorylated substrate was detected by an EnVision plate reader (Perkin Elmer, MA) 680 nm excitation, 520-620 nm emission. Data was graphed and IC50s calculated using Excel Fit (Microsoft).

In order of falling IC50:
1. CCn1ncc2c(Nc3cn(C)cn3)nc(NC(C)c3ncc(F)cn3)nc21 (single isomer, unassigned) [Example 9(a), 1-Ethyl-N^6-[1-(5-fluoropyrimidin-2-yl)ethyl]-N^4-(1-methyl-1H-imidazol-4-yl)-1H-pyrazolo[3,4-d]pyrimidine-4,6-diamine]  13.7 µM
2. CC(Nc1nc(Nc2cn(C)cn2)c2cc[nH]c2n1)c1ncc(F)cc1F (single isomer, unassigned) [Example 25(a), N^2-[1-(3,5-Difluoropyridin-2-yl)ethyl]-N^4-(1-methyl-1H-imidazol-4-yl)-7H-pyrrolo[2,3-d]pyrimidine-2,4-diamine]  2.9 µM
